Where two headings read alike, the source gives them in different places.
Assays:
Haemonchus contortus L3 = assay: Haemonchus contortus, Larvae Stage 3 (HcL3) In Vitro Assay; details: Haemonchus contortus
[1] = test system: Dirofilaria immitis microfilariae; assay: Dirofilaria immitis, Microfilariae (DiMF) In Vitro Assay; details: Dirofilaria immitis
[2] = molecular target: T1, bovine vesicular acetylcholine transporter (VAChT) (Bos taurus, UniProt E1BK36); assay: Radioligand Binding Assay; details: Bovine binding Ki, CHO-K1 membranes with recombinant bovine VAChT, [3H]Compound X6 0.3 nM
T1 sequence (E1BK36 1-524): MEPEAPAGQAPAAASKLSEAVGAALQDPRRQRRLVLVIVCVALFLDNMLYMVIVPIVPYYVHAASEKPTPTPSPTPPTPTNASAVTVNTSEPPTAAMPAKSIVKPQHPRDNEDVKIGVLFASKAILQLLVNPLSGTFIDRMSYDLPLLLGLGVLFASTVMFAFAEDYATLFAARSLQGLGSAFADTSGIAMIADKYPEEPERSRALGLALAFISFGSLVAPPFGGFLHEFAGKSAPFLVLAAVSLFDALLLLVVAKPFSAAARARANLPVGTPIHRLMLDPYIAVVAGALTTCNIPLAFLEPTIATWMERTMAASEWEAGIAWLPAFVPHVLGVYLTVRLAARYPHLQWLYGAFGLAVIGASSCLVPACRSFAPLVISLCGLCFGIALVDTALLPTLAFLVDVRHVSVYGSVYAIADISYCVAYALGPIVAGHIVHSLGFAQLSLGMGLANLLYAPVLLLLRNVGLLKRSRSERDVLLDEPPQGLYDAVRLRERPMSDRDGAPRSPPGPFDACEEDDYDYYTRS

[3] = 96 h, read-out: HcL3 MEC, Minimal Effective Concentration whereby worm motility is inhibited by approximately 70%, 37° C., tested 0.001-100 μM
[4] = 72 h, read-out: Di MF, MEC, decrease in microfilariae motility by visual assessment, curve starting at 100 μM
[5] = 96 hours, 37° C., read-out: HcL3 MEC

Row | SMILES | minimal effective concentration (Haemonchus contortus L3; [3]) [µM] | minimal effective concentration [1, 4] [µM] | Ki [2] [nM] | minimal effective concentration (Haemonchus contortus L3; [5]) [µM] | minimal effective concentration ([1]; 72 hours, read-out: Di MF) [µM]
1 | COc1ccc(/C=C/CN2CCC3(CC2)CN(C(=O)NCc2ccnc(Cl)c2)c2cc(C(F)(F)F)ccc23)cc1 [Example 125, (E)-N-((2-chloropyridin-4-yl)methyl)-1′-(3-(4-methoxyphenyl)allyl)-6-(trifluoromethyl)spiro[indoline-3,4′-piperidine]-1-carboxamide] | 1 | 10 | 20.4 | – | –
2 | O=C(NCc1ccnc(Cl)c1)N1CC2(CCN(C/C=C/c3ccc(Cl)cc3)CC2)c2cc(F)c(C(F)(F)F)cc21 [Example 126, (E)-1′-(3-(4-chlorophenyl)allyl)-N-((2-chloropyridin-4-yl)methyl)-5-fluoro-6-(trifluoromethyl)spiro[indoline-3,4′-piperidine]-1-carboxamide] | – | – | 33 | 1 | 10
3 | O=C(NCc1ccnc(F)c1)N1CC2(CCN(C/C=C/c3ccc(Cl)cc3)CC2)c2ccc(OC(F)(F)F)cc21 [Example 127, (E)-1′-(3-(4-chlorophenyl)allyl)-N-((2-fluoropyridin-4-yl)methyl)-6-(trifluoromethoxy)spiro[indoline-3,4′-piperidine]-1-carboxamide] | 1 | 10 | 78.4 | – | –
4 | O=C(NCc1ccnc(Cl)c1)N1CC2(CCN(C/C=C/c3ccc(C(F)(F)F)cc3)CC2)c2cc(Cl)c(F)cc21 [Example 128, (E)-5-chloro-N-((2-chloropyridin-4-yl)methyl)-6-fluoro-1′-(3-(4-(trifluoromethyl)phenyl)allyl)spiro[indoline-3,4′-piperidine]-1-carboxamide] | 1 | 3.3 | 44 | – | –
5 | O=C(NCc1ccnc(Cl)c1)N1CC2(CCN(C/C=C/c3ccc(Cl)c(Cl)c3)CC2)c2cc(F)c(C(F)(F)F)cc21 [Example 129, (E)-N-((2-chloropyridin-4-yl)methyl)-1′-(3-(3,4-dichlorophenyl)allyl)-5-fluoro-6-(trifluoromethyl)spiro[indoline-3,4′-piperidine]-1-carboxamide] | – | – | 32.8 | 1.5 | 10
6 | O=C(NCc1ccnc(Cl)c1)N1CC2(CCN(C/C=C/c3ccc(OC(F)(F)F)cc3)CC2)c2ccc(C(F)(F)F)cc21 [Example 130, (E)-N-((2-chloropyridin-4-yl)methyl)-1′-(3-(4-(trifluoromethoxy)phenyl)allyl)-6-(trifluoromethyl)spiro[indoline-3,4′-piperidine]-1-carboxamide] | 1.8 | 18.2 | 193 | – | –
7 | O=C(NCc1ccnc(Cl)c1)N1CC2(CCN(C/C=C/c3ccc(Cl)c(Cl)c3)CC2)c2c(Cl)cccc21 [Example 131, (E)-4-chloro-N-((2-chloropyridin-4-yl)methyl)-1′-(3-(3,4-dichlorophenyl)allyl) spiro[indoline-3,4′-piperidine]-1-carboxamide] | 3.3 | 10 | 184 | – | –
8 | N#Cc1cc2c(cc1C(F)(F)F)N(C(=O)NCc1ccnc(Cl)c1)CC21CCN(C/C=C/c2ccc(Cl)c(Cl)c2)CC1 [Example 132, (E)-N-((2-chloropyridin-4-yl)methyl)-5-cyano-1′-(3-(3,4-dichlorophenyl)allyl)-6-(trifluoromethyl)spiro[indoline-3,4′-piperidine]-1-carboxamide] | – | – | 49.9 | 3.3 | 3.3
9 | O=C(NCc1ccnc(Cl)c1)N1CC2(CCN(C/C=C/c3ccc(Cl)c(Cl)c3)CC2)c2cc(C(F)(F)F)ccc21 [Example 133, (E)-N-((2-chloropyridin-4-yl)methyl)-1′-(3-(3,4-dichlorophenyl)allyl)-5-(trifluoromethyl)spiro[indoline-3,4′-piperidine]-1-carboxamide] | – | – | 546 | 3.3 | 7.6
10 | O=C(NCc1ccnc(Cl)c1)N1CC2(CCN(C/C=C/c3ccc(Cl)c(Cl)c3)CC2)c2cc(Cl)c(C(F)(F)F)cc21 [Example 135, (E)-5-chloro-N-((2-chloropyridin-4-yl)methyl)-1′-(3-(3,4-dichlorophenyl)allyl)-6-(trifluoromethyl)spiro[indoline-3,4′-piperidine]-1-carboxamide] | – | – | 118 | 3.3 | 57.4
11 | O=C(NCc1ccnc(Cl)c1)N1CC2(CCN(C/C=C/c3ccc(Cl)c(Cl)c3)CC2)c2c1ccc(Cl)c2Cl [Example 136, (E)-4,5-dichloro-N-((2-chloropyridin-4-yl)methyl)-1′-(3-(3,4-dichlorophenyl)allyl)spiro[indoline-3,4′-piperidine]-1-carboxamide] | – | – | 160 | 3.3 | 100
12 | CN(C)c1ccc2c(c1)C1(CCN(C/C=C/c3ccc(Cl)c(Cl)c3)CC1)CN2C(=O)NCc1ccnc(Cl)c1 [Example 137, (E)-N-((2-chloropyridin-4-yl)methyl)-1′-(3-(3,4-dichlorophenyl)allyl)-5-(dimethylamino)spiro[indoline-3,4′-piperidine]-1-carboxamide] | 3.3 | 10 | 516 | – | –
13 | O=C(NCc1ccnc(Cl)c1)N1CC2(CCN(C/C=C/c3ccc(C(F)(F)F)cc3)CC2)c2ccc(C(F)(F)F)cc21 [Example 138, (E)-N-((2-chloropyridin-4-yl)methyl)-6-(trifluoromethyl)-1′-(3-(4-(trifluoromethyl)phenyl)allyl)spiro[indoline-3,4′-piperidine]-1-carboxamide] | 3.3 | 10 | 57.2 | – | –
14 | O=C(NCc1ccnc(Cl)c1)N1CC2(CCN(Cc3ccc4cc(F)ccc4c3)CC2)c2cc(Cl)ccc21 [Example 139, 5-chloro-N-((2-chloropyridin-4-yl)methyl)-1′-((6-fluoronaphthalen-2-yl)methyl)spiro[indoline-3,4′-piperidine]-1-carboxamide] | 3.3 | 33 | 20.1 | – | –
15 | O=C(NCc1ccnc(Cl)c1)N1CC2(CCN(C/C=C/c3ccc(Cl)cc3)CC2)c2c1ccc(F)c2Cl [Example 140, (E)-4-chloro-1′-(3-(4-chlorophenyl)allyl)-N-((2-chloropyridin-4-yl)methyl)-5-fluorospiro[indoline-3,4′-piperidine]-1-carboxamide] | – | – | 95.2 | 3.3 | 5.7
16 | O=C(NCc1ccnc(Cl)c1)N1CC2(CCN(C/C=C/c3ccc(F)cc3)CC2)c2cc(Cl)c(Cl)cc21 [Example 141, (E)-5,6-dichloro-N-((2-chloropyridin-4-yl)methyl)-1′-(3-(4-fluorophenyl)allyl)spiro[indoline-3,4′-piperidine]-1-carboxamide] | – | – | 164 | 3.3 | 4.4
17 | O=C(NCc1ccnc(Cl)c1)N1CC2(CCN(C/C=C/c3ccc(Cl)cc3)CC2)c2cc(Cl)c(Cl)cc21 [Example 142, (E)-5,6-dichloro-1′-(3-(4-chlorophenyl)allyl)-N-((2-chloropyridin-4-yl)methyl)spiro[indoline-3,4′-piperidine]-1-carboxamide] | – | – | 107 | 3.3 | 7.6
18 | O=C(NCc1ccnc(Cl)c1)N1CC2(CCN(C/C=C/c3ccc(F)cc3)CC2)c2c1ccc(Cl)c2Cl [Example 143, (E)-4,5-dichloro-N-((2-chloropyridin-4-yl)methyl)-1′-(3-(4-fluorophenyl)allyl)spiro[indoline-3,4′-piperidine]-1-carboxamide] | – | – | 114 | 3.3 | 5.7
19 | O=C(NCc1ccnc(Cl)c1)N1CC2(CCN(C/C=C/c3ccc(Cl)cc3)CC2)c2c1ccc(Cl)c2Cl [Example 144, (E)-4,5-dichloro-1′-(3-(4-chlorophenyl)allyl)-N-((2-chloropyridin-4-yl)methyl)spiro[indoline-3,4′-piperidine]-1-carboxamide] | – | – | 26.2 | 3.3 | 10
20 | O=C(NCc1ccnc(Cl)c1)N1CC2(CCN(C/C=C/c3ccc(C(F)(F)F)cc3)CC2)c2cc(F)c(Cl)cc21 [Example 145, (E)-6-chloro-N-((2-chloropyridin-4-yl)methyl)-5-fluoro-1′-(3-(4-(trifluoromethyl)phenyl)allyl)spiro[indoline-3,4′-piperidine]-1-carboxamide] | 3.3 | 5.7 | 47.4 | – | –
21 | O=C(NCc1ccnc(Cl)c1)N1CC2(CCN(C/C=C/c3ccc(Cl)c(Cl)c3)CC2)c2c1ccc(F)c2Cl [Example 146, (E)-4-chloro-N-((2-chloropyridin-4-yl)methyl)-1′-(3-(3,4-dichlorophenyl)allyl)-5-fluorospiro[indoline-3,4′-piperidine]-1-carboxamide] | 3.3 | 5.7 | 21.7 | – | –
